In PMC10610214 (Pharmaceuticals, 2023):

How the values were obtained:
[1] = target: T1, AChE (from electric eel) (Electrophorus electricus, UniProt O42275); assay: biochemical; conditions: for IC50: AChE from electric eel, mean ± SD of three experiments, read-out: AChE Inhibition (IC50); for Selective Index, IC50 (BChE)/IC50 (AChE): AChE selectivity index
T1 construct: AChE (from electric eel); purchased Sigma Chemical Company (St. Louis, MO, USA)
Protocol: (§1) The ChE inhibitory activity of the test compounds was determined using the modified Ellman’s method. The compounds were dissolved in DMSO (10 mmol/L) and then diluted with PB (phosphate buffer) solution to attain a range of final concentrations. […] Briefly, 100 μL of different concentrations of the test or standard compounds and 100 μL of AChE/BuChE (0.5 U/mL) were added into 48-well plates and then co-incubated at 37 °C for 30 min. […] All concentrations mentioned are final.

[2] = target: T2, BuChE (from equine serum) (Equus caballus, UniProt P81908); assay: biochemical; conditions: mean ± SD of three experiments, read-out: BuChE Inhibition (IC50)
T2 construct: BuChE (from equine serum); purchased Sigma Chemical Company (St. Louis, MO, USA); host or cells: equine serum
Protocol: as §1

[3] = tested on: H2O2-induced PC12 cells; assay: Neuroprotection against H2O2-induced PC12 cell injury (MTT); assay type: cell-based; conditions: H2O2 250 μM, mean ± SEM
Protocol: Neuroprotection assay is similar to cytotoxicity. Oxidative cellular damage caused by H2O2 has become one of the important methods to study oxidative damage in neural cells. PC12 cells were seeded into a 96-well plate at a density of 5.0 × 10^3 cells per well. After the cells were incubated overnight, the old medium was discarded. […] After incubating overnight, 20 μL of MTT solution (5 mg/mL, Sigma-Aldrich) was added per well, and the cells were incubated for an additional 4 h. Afterwards, the supernatant was removed and 150 μL of DMSO was added. The 96-well plate was placed on the shaker for 10–15 min, and then the absorbance at 492 nm was measured by a microplate reader.

[4] = tested on: PC12 cells; assay: Cytotoxicity in PC12 cells (MTT); assay type: cell-based
Protocol: The cytotoxicity and neuroprotective effects of the compounds on PC12 cells were evaluated by MTT assay. PC12 cells were seeded into a 96-well plate at a density of 5.0 × 10^3 cells per well. After the cells were incubated overnight, the old medium was discarded. The cells were incubated for another 24 h with fresh medium containing compounds at a concentration of 30 or 50 μM. A total of 20 μL of MTT solution (5 mg/mL, Sigma-Aldrich, Shanghai, China) was then added per well, and the cells were incubated for an additional 4 h. Afterwards, the supernatant was removed and 150 μL of DMSO was added to solubilize formazan crystals. The 96-well plate was placed on the shaker for 10–15 min, and then the absorbance at 492 nm was measured by a microplate reader.

T2 sequence (P81908 whole entry): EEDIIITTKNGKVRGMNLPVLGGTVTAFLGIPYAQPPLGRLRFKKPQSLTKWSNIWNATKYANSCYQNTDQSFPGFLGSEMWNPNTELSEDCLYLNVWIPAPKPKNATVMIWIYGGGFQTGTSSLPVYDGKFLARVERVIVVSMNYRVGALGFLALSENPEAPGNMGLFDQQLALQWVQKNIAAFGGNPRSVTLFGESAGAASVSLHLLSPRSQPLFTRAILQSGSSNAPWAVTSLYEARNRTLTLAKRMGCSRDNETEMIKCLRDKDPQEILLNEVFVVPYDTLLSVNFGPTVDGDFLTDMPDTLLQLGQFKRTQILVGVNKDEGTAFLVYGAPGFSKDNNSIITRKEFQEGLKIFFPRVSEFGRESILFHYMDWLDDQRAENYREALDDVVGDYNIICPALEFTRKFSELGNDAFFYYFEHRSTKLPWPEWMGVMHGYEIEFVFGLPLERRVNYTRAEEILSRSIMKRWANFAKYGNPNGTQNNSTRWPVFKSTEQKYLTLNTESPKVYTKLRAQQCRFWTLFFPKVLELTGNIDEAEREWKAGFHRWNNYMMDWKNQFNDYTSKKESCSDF
T1 sequence (O42275 24-633): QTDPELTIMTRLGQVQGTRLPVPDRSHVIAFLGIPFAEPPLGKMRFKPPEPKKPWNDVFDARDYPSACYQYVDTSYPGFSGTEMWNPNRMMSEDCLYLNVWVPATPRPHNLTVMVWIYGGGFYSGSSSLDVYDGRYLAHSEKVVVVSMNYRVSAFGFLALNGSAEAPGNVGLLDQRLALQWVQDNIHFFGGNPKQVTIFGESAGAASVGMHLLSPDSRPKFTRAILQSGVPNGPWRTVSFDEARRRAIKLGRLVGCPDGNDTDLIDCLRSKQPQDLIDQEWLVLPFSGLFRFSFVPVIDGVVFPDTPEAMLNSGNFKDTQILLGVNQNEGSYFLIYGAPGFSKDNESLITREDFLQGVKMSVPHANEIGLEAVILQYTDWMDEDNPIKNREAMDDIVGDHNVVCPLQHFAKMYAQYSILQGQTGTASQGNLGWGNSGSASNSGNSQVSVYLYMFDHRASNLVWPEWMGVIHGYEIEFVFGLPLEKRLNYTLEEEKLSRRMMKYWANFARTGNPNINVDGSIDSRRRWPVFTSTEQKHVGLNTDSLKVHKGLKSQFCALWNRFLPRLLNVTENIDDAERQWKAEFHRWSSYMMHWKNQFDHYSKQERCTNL

O=C1c2cc(NS(=O)(=O)c3ccc(F)cc3)ccc2-n2c1nc1ccccc1c2=O [4f]
IC50 [1]: 0.56 ± 0.07 µM | Selective Index, IC50 (BChE)/IC50 (AChE) [1]: 21.2 | IC50 [2]: 11.9 ± 1.86 µM | H2O2-Induced PC12 Cell Viability (% of Control) ([3]; compound 10 μM): 45.23 ± 2.2 % of Control | H2O2-Induced PC12 Cell Viability (% of Control) ([3]; compound 30 μM): 55.26 ± 0.5 % of Control | Cell Viability (% of Control) ([4]; compound 30 μM): 99.4 ± 1.6 % of Control | Cell Viability (% of Control) ([4]; compound 50 μM): 98.7 ± 1.1 % of Control

COc1ccc(S(=O)(=O)Nc2ccc3c(c2)C(=O)c2nc4ccccc4c(=O)n2-3)cc1 [4j]
IC50 [1]: > 50 µM | IC50 [2]: > 50 µM | H2O2-Induced PC12 Cell Viability (% of Control) ([3]; compound 10 μM): 38.24 ± 3.1 % of Control | H2O2-Induced PC12 Cell Viability (% of Control) ([3]; compound 30 μM): 41.69 ± 1.7 % of Control | Cell Viability (% of Control) ([4]; compound 30 μM): 99.7 ± 1.6 % of Control | Cell Viability (% of Control) ([4]; compound 50 μM): 99.1 ± 1.2 % of Control

COc1ccc(S(=O)(=O)Nc2ccc3c(c2)C(=O)c2nc4ccccc4c(=O)n2-3)cc1OC [4k]
IC50 [1]: 25.4 ± 1.53 µM | IC50 [2]: > 50 µM | H2O2-Induced PC12 Cell Viability (% of Control) ([3]; compound 10 μM): 44.35 ± 1.5 % of Control | H2O2-Induced PC12 Cell Viability (% of Control) ([3]; compound 30 μM): 46.23 ± 0.6 % of Control | Cell Viability (% of Control) ([4]; compound 30 μM): 98.8 ± 1.9 % of Control | Cell Viability (% of Control) ([4]; compound 50 μM): 98.2 ± 3.4 % of Control

O=C1c2ccccc2-n2c1nc1ccc(NS(=O)(=O)c3ccccc3C(F)(F)F)cc1c2=O [8o]
IC50 [1]: 8.86 ± 0.76 µM | IC50 [2]: > 50 µM | H2O2-Induced PC12 Cell Viability (% of Control) ([3]; compound 10 μM): 42.56 ± 2.1 % of Control | H2O2-Induced PC12 Cell Viability (% of Control) ([3]; compound 30 μM): 54.6 ± 3.8 % of Control | Cell Viability (% of Control) ([4]; compound 30 μM): 99.7 ± 2.4 % of Control | Cell Viability (% of Control) ([4]; compound 50 μM): 99.4 ± 1.1 % of Control

Cc1ccc(S(=O)(=O)Nc2ccc3nc4n(c(=O)c3c2)-c2ccccc2C4=O)cc1 [8b]
IC50 [1]: 4.55 ± 0.8 µM | IC50 [2]: > 50 µM | H2O2-Induced PC12 Cell Viability (% of Control) ([3]; compound 10 μM): 42.01 ± 1.7 % of Control | H2O2-Induced PC12 Cell Viability (% of Control) ([3]; compound 30 μM): 51.37 ± 2.1 % of Control | Cell Viability (% of Control) ([4]; compound 30 μM): 101.2 ± 3.1 % of Control | Cell Viability (% of Control) ([4]; compound 50 μM): 99.8 ± 2.4 % of Control

O=C1c2ccccc2-n2c1nc1ccc(NS(=O)(=O)c3cccc(F)c3)cc1c2=O [8g]
IC50 [1]: > 50 µM | IC50 [2]: > 50 µM | H2O2-Induced PC12 Cell Viability (% of Control) ([3]; compound 10 μM): 44.37 ± 0.5 % of Control | H2O2-Induced PC12 Cell Viability (% of Control) ([3]; compound 30 μM): 52.28 ± 2.3 % of Control | Cell Viability (% of Control) ([4]; compound 30 μM): 99.6 ± 1.2 % of Control | Cell Viability (% of Control) ([4]; compound 50 μM): 99.5 ± 2.7 % of Control

O=C1c2cc(NS(=O)(=O)c3ccc(OC(F)(F)F)cc3)ccc2-n2c1nc1ccccc1c2=O [4m]
IC50 [1]: 7.75 ± 0.21 µM | IC50 [2]: 10.2 ± 1.24 µM | H2O2-Induced PC12 Cell Viability (% of Control) ([3]; compound 10 μM): 37.89 ± 4.3 % of Control | H2O2-Induced PC12 Cell Viability (% of Control) ([3]; compound 30 μM): 44.98 ± 2.5 % of Control | Cell Viability (% of Control) ([4]; compound 30 μM): 99.6 ± 0.8 % of Control | Cell Viability (% of Control) ([4]; compound 50 μM): 99.3 ± 2.1 % of Control

Cc1ccc(S(=O)(=O)Nc2ccc3c(c2)C(=O)c2nc4ccccc4c(=O)n2-3)cc1 [4b]
IC50 [1]: 5.75 ± 0.27 µM | Selective Index, IC50 (BChE)/IC50 (AChE) [1]: 1.5 | IC50 [2]: 8.61 ± 1.2 µM | H2O2-Induced PC12 Cell Viability (% of Control) ([3]; compound 10 μM): 47.36 ± 1.7 % of Control | H2O2-Induced PC12 Cell Viability (% of Control) ([3]; compound 30 μM): 59.09 ± 2.5 % of Control | Cell Viability (% of Control) ([4]; compound 30 μM): 99.7 ± 0.9 % of Control | Cell Viability (% of Control) ([4]; compound 50 μM): 99.5 ± 1.5 % of Control

O=C1c2ccccc2-n2c1nc1ccc(NS(=O)(=O)c3ccccc3F)cc1c2=O [8h]
IC50 [1]: > 50 µM | IC50 [2]: > 50 µM | H2O2-Induced PC12 Cell Viability (% of Control) ([3]; compound 10 μM): 36.03 ± 3.0 % of Control | H2O2-Induced PC12 Cell Viability (% of Control) ([3]; compound 30 μM): 46.73 ± 3.5 % of Control | Cell Viability (% of Control) ([4]; compound 30 μM): 99.4 ± 1.4 % of Control | Cell Viability (% of Control) ([4]; compound 50 μM): 98.3 ± 2.7 % of Control

CC(C)(C)c1ccc(S(=O)(=O)Nc2ccc3c(c2)C(=O)c2nc4ccccc4c(=O)n2-3)cc1 [4c]
IC50 [1]: 2.56 ± 0.32 µM | Selective Index, IC50 (BChE)/IC50 (AChE) [1]: 3.2 | IC50 [2]: 8.13 ± 1.21 µM | H2O2-Induced PC12 Cell Viability (% of Control) ([3]; compound 10 μM): 45.59 ± 0.7 % of Control | H2O2-Induced PC12 Cell Viability (% of Control) ([3]; compound 30 μM): 56.4 ± 1.2 % of Control | Cell Viability (% of Control) ([4]; compound 30 μM): 99.5 ± 3.1 % of Control | Cell Viability (% of Control) ([4]; compound 50 μM): 98.2 ± 1.7 % of Control

O=C1c2cc(NS(=O)(=O)c3ccccc3)ccc2-n2c1nc1ccccc1c2=O [4a]
IC50 [1]: 0.97 ± 0.16 µM | Selective Index, IC50 (BChE)/IC50 (AChE) [1]: 10.3 | IC50 [2]: 9.98 ± 0.64 µM | H2O2-Induced PC12 Cell Viability (% of Control) ([3]; compound 10 μM): 43.29 ± 3.1 % of Control | H2O2-Induced PC12 Cell Viability (% of Control) ([3]; compound 30 μM): 48.5 ± 1.5 % of Control | Cell Viability (% of Control) ([4]; compound 30 μM): 99.5 ± 1.7 % of Control | Cell Viability (% of Control) ([4]; compound 50 μM): 98.3 ± 3.0 % of Control
